Measured values reported in publication PMC8522962 (Reproductive Toxicology (Elmsford, N.y.), 2021).
Entries after “also recorded” stand apart in the source; their conditions may differ.

Columns and labels:
hiPSC-derived EBs = test: Human 3D in vitro model, hiPSC-derived embryoid bodies; format: cell-based; settings: threshold concentration where 20 % of teratogenicity was detected by differential expression
rats = settings: read-out: rat in vivo LOAEL Cmax; maximum plasma concentration at LOAEL; cited from earlier work
[1] = test system: differentiation of mouse embryonic stem cells (ES-D3) into beating cardiomyocytes; test: Mouse embryonic stem cell test; format: cell-based; settings: for mEST ID50: half maximal inhibitory concentration of cardiomyocyte differentiation
[2] = test system: T/Bra::GFP mouse gastruloids; test: Mouse gastruloid assay, T/Bra::GFP reporter line; format: cell-based; settings: for adverse effects on reporter gene expression (words): mouse system, up to the highest concentration levels
[3] = EMA ICH S5 (R3) guidelines; cited from earlier work
mouse gastruloids = test: Mouse gastruloid assay, both lines or line not specified; format: cell-based; settings: for mouse Gastruloid LOAEL: lowest observable adverse effect level; for overall outcome in the mouse gastruloid model: summary statements
[4] = test system: RUES2-GLR human gastruloids; test: Human gastruloid assay, RUES2-GLR line; settings: for Human Gastruloid LOAEL: lowest observable adverse effect level; for overall outcome in the human gastruloid model: summary statements; for adverse effects on reporter gene expression (words): up to the highest concentration levels
rabbits = settings: cited from earlier work
[5] = test system: E14Tg2A mouse gastruloids; test: Mouse gastruloid assay, E14Tg2A line; format: cell-based
plasma protein = settings: cited from earlier work; for free fractions of unbound compound: human therapeutic concentrations

In the case of `COc1ccccc1Oc1c(NS(=O)(=O)c2ccc(C(C)(C)C)cc2)nc(-c2ncccn2)nc1OCCO` [Bosentan], the “hiPSC- derived EBs TC20” value (hiPSC-derived EBs) is listed as 13 µM, the Cmax (rats) is listed as 30 µM and the “mEST prediction” value [1] is listed as “false negative”. The “mEST ID50” value [1] was 68.2 µM, the “morphology vs controls” value ([2]; 4 μM and 8 μM) was “larger and more elongated than controls” and the “GFP expression” value ([2]; cultured in the presence of bosentan (4-18 μM)) was “robust GFP expression that was localised to the pole of the elongations”. For the same molecule, the Teratogenicity classification [3] was “Positive”, the “size and morphogenesis vs controls” value (mouse gastruloids; 4–18 μM, mouse gastruloids) was “slightly larger than controls, but did not appear to be defective in morphogenesis” and the “germ layer representation and axial elongation” value ([4]; 4 μM) was “maintain representation of all three germ layers and axial elongation morphogenesis”. For the same molecule, the “size vs DMSO” value ([4]; 4 μM) was “marginally smaller than DMSO-treated gastruloids”, the “SOX17 expression” value ([4]; 18 μM) was “lose expression of SOX17” and the “human gastruloids showing low levels of SOX17 expression, on average” value ([4]; 18 μM, 72 h, vehicle controls 88 %) was 33%. For the same molecule, the “Human Gastruloid LOAEL” value ([4]; 72 h) was 18 µM, the “overall outcome in the human gastruloid model” value [4] was “potentially teratogenic” and the “effects in rabbits in vivo” value (rabbits) was “no effects”.

For `CC(C)Cc1ccc(C(C)C(=O)O)cc1` (centres unmarked) [Ibuprofen], the “hiPSC- derived EBs TC20” value (hiPSC-derived EBs) is given as 855 µM, the Cmax (rats) is given as 1600 µM and the “mEST prediction” value [1] is given as “negative”. For the same molecule, the “GFP expression” value ([2]; all ibuprofen treatments tested (63-250 μM)) was “marked increase in GFP expression”, the “growth and morphology vs vehicle-only controls” value (mouse gastruloids; 63−250 μM, 0.12 % DMSO control) was “no consistent effect on growth or morphology” and the “mouse Gastruloid LOAEL” value (mouse gastruloids; 120 h) was 63 µM. The “mouse Gastruloid LOAEL” value (mouse gastruloids; 120 h, listed as ibuprofen) was 63 µM, the “overall outcome in the mouse gastruloid model” value (mouse gastruloids) was “adverse effects on gene expression” and the “SOX2 expression vs vehicle-only controls” value ([4]; 63 μM) was “marginally elevated”. The “size and circularity” value ([4]; 63 μM and 250 μM) was “reduced size and increased circularity”, the “Human Gastruloid LOAEL” value ([4]; 72 h) was 63 µM and the “effects in rabbits in vivo” value (rabbits) was “no effects”.

In the case of `CC1(C)S[C@@H]2[C@H](NC(=O)Cc3ccccc3)C(=O)N2[C@H]1C(=O)O` [Penicillin G], the “morphological changes vs control” value ([5]; 63 μM, 1 mM and 2 mM, water control) is reported as “small morphological changes resulting in slightly larger, more elongated or less circular gastruloids”, the “adverse effects on reporter gene expression (words)” value (from here on “adverse effects”) ([2]; listed as Penicillin) is reported as “No observable adverse effects on reporter gene expression” and the “adverse effects” value ([2]; listed as penicillin G) is reported as “did not cause any adverse effects on reporter gene expression”. For the same molecule, the “effect on size” value ([4]; 63 μM and 1 mM) was “minimal effects of increased size”, the “adverse effects” value ([4]; human system, listed as Penicillin) was “No observable adverse effects on reporter gene expression” and the “adverse effects” value ([4]; human system, listed as penicillin G) was “did not cause any adverse effects on reporter gene expression”.

For `O=C1NC(=O)C(c2ccccc2)(c2ccccc2)N1` [Phenytoin], the “hiPSC- derived EBs TC20” value (hiPSC-derived EBs) is given as under 8 µM, the Cmax (rats) is given as 106 µM and the “size and morphology vs vehicle-only controls” value ([5]; 1−20 μM, 0.1 % DMSO control) is given as “not significantly different compared to the vehicle-only controls in terms of size and morphology”. For the same molecule, the “mEST ID50” value [1] was 0.39 µM, the “size and circularity” value ([2]; 20 μM) was “significantly smaller and more circular” and the “T/Bra::GFP expression” value ([2]; > 5 μM) was “negatively correlated with increasing concentrations of phenytoin”. The Teratogenicity classification [3] was “Positive”, the plasma protein binding (plasma protein) was 90% and the “free fractions of unbound compound” value (plasma protein) was 3 to 9 µM. The “overall outcome in the mouse gastruloid model” value (mouse gastruloids) was “adverse effects on gene expression”, the “area” value ([4]; 20 μM, One-Way ANOVA α = 0.05) was “significantly reduced area” and the “proportions and patterns of gene expression” value ([4]; 1−20 μM) was “maintained proportions and patterns of gene expression that were comparable to controls”. The “overall outcome in the human gastruloid model” value [4] was “falls below the limit of detectable effect”.

In the case of `CC1=C(/C=C/C(C)=C/C=C/C(C)=C/C(=O)O)C(C)(C)CCC1` [Retinoic Acid, All-trans retinoic acid], the Cmax (rats) is listed as 1 µM, the “mEST ID50” value [1] is listed as 0.0037 µM and the “mEST ID50” value ([1]; listed as ATRA) is listed as 0.003 µM. For the same molecule, the “T/Bra::GFP expression” value ([2]; all ATRA treatments (0.4-100 nM), 120 h) was “apparent loss of T/Bra::GFP expression”, the Teratogenicity classification [3] was “Positive” and the “effect on axial extension” value (mouse gastruloids; 0.4 nM, 120 h, both lines) was “significant inhibition of axial extension”. The “effect on size and shape” value (mouse gastruloids; 33 nM, 100 nM, 120 h, both lines) was “drastically reduced size, and gastruloids assumed a spherical shape without any axial elongation”, the “dosages likely to be cytotoxic or cytostatic in the mouse system” value (mouse gastruloids; 120 h) was over 0.4 nM and the “mouse Gastruloid LOAEL” value (mouse gastruloids; 120 h) was 0.0004 µM. For the same molecule, the “overall outcome in the mouse gastruloid model” value (mouse gastruloids) was “similarly teratogenic; also recorded: adverse morphological effects”, the “germ layer representation and axial elongation” value ([4]; 0.4 nM, 72 h) was “maintain an equivalent representation of the three germ layers and underwent partial axial elongation” and the “size and circularity vs controls” value ([4]; 0.4 nM, 72 h) was “significantly smaller and more circular than controls”. The “axial extension and SOX2 expression” value ([4]; 33 nM, 72 h) was “completely inhibited axial extension and promoted the over-expression of SOX2”, the “BRA expression” value ([4]; 33 nM, 72 h, three replicates) was “no detectable BRA expression” and the “human gastruloids expressing SOX17 at low levels, on average” value ([4]; 33 nM, 72 h, DMSO controls 88 %) was 42%. The “Human Gastruloid LOAEL” value ([4]; 72 h) was 0.0004 µM and the “overall outcome in the human gastruloid model” value [4] was “similarly teratogenic”.

In the case of `O=C1CCC(N2C(=O)c3ccccc3C2=O)C(=O)N1` (centres unmarked) [Thalidomide], the “hiPSC- derived EBs TC20” value (hiPSC-derived EBs) is given as under 0.1 µM, the Cmax (rats) is given as 19 µM and the “mEST prediction” value [1] is given as “false negative”. For the same molecule, the “mEST inhibition of cardiomyocytes” value ([1]; concentrations up to 2 mM) was “did not show any inhibition of cardiomyocytes”, the “GFP expression” value ([2]; increasing concentrations (100 μM)) was “reduced GFP expression” and the Teratogenicity classification [3] was “Positive”. The “size and morphology” value (mouse gastruloids; 0.4−100 μM, both lines) was “not significantly altered in either size or morphology”, the “overall outcome in the mouse gastruloid model” value (mouse gastruloids) was “adverse effects on gene expression” and the “SOX2 expression” value ([4]; 0.4 μM and 100 μM) was “clearly increased SOX2 expression”. For the same molecule, the “gastruloid size” value ([4]; 0.4 μM and 100 μM) was “significant decreases in gastruloid size”, the “Human Gastruloid LOAEL” value ([4]; 72 h) was 0.4 µM and the “overall outcome in the human gastruloid model” value [4] was “potentially teratogenic”.

In the case of `CCCC(CCC)C(=O)O` [Valproic Acid], the “hiPSC- derived EBs TC20” value (hiPSC-derived EBs) is listed as 85 µM, the Cmax (rats) is listed as 1600 µM and the “mEST ID50” value [1] is listed as 589 µM. For the same molecule, the “GFP expression” value ([2]; 4 μM) was “maintained localised GFP expression”, the “size, elongation and GFP expression” value ([2]; concentrations higher than 4 μM) was “smaller gastruloids, impaired elongation and a loss of GFP expression” and the Teratogenicity classification [3] was “Positive”. The plasma protein binding (plasma protein) was at least 90%, the “free fractions of unbound compound” value (plasma protein) was 0.3−0.5 mM and the “tolerability” value (mouse gastruloids; 4 μM, mouse gastruloids) was “fairly well tolerated”. For the same molecule, the “toxicity judged from decrease in gastruloid size” value (mouse gastruloids; 1 mM, mouse system) was “seem to induce toxicity”, the “effect on shape and size” value (mouse gastruloids; concentrations higher than 333 μM, mouse gastruloids) was “clearly spherical mouse gastruloids” and the “mouse Gastruloid LOAEL” value (mouse gastruloids; 120 h) was 333 µM. For the same molecule, the “overall outcome in the mouse gastruloid model” value (mouse gastruloids) was “similarly teratogenic; also recorded: adverse morphological effects”, the “effect on size” value ([4]; 4 μM, human gastruloids) was “decrease in size” and the “tolerability” value ([4]; 4 μM, human gastruloids) was “fairly well tolerated”. For the same molecule, the “SOX2 and BRA reporter expression vs 0.2 % DMSO controls” value ([4]; 333 μM) was “very low SOX2 expression and elevated BRA expression”, the “axial elongation morphogenesis” value ([4]; 333 μM) was “failed to undergo axial elongation morphogenesis” and the “toxicity judged from decrease in gastruloid size” value ([4]; 1 mM, human system) was “seem to induce toxicity”. For the same molecule, the “Human Gastruloid LOAEL” value ([4]; 72 h) was 333 µM and the “overall outcome in the human gastruloid model” value [4] was “similarly teratogenic”.
